Measured values as given in the Deep4Chem optical property database.
One block for each compound: values may come before it.

Experiment: photoluminescence quantum yield (fraction); solvent given as SMILES

photoluminescence quantum yield (in CCO): 0.014
photoluminescence quantum yield (in CS(C)=O): 0.025
photoluminescence quantum yield (in O): 0.027
SMILES: CC1(C)C(/C=C/c2cc3ccc(O)cc3oc2=O)=[N+](CCCS(=O)(=O)[O-])c2ccc3c(S(=O)(=O)O)cc(S(=O)(=O)O)cc3c21

photoluminescence quantum yield (in ClCCl): 0.5
SMILES: CN(C)c1ccc(/C=C/c2cnc(/C=C/c3ccc(C#N)cc3)o2)cc1

photoluminescence quantum yield (in CC#N): 0.0009
SMILES: C=C[C@]12CC[C@H](CC1)N=N2

photoluminescence quantum yield (in ClC(Cl)Cl): 0.49
SMILES: F[B-]1(F)OC(c2ccc(Br)cc2)=Cc2ccc3ccccc3[n+]21

photoluminescence quantum yield (in ClCCl): 0.0876
SMILES: CC1(C)c2ccccc2N(c2ccc(-c3nc(-c4ccccn4)n(-c4ccc(N5c6ccccc6C(C)(C)c6ccccc65)cc4)n3)cc2)c2ccccc21

photoluminescence quantum yield (in C1CCOC1): 0.11
photoluminescence quantum yield (in CC#N): 0.15
photoluminescence quantum yield (in CO): 0.09
photoluminescence quantum yield (in ClCCl): 0.07
SMILES: C(=C\c1nc2ccccc2[nH]1)/c1ccc(-c2nc3c4cccnc4c4ncccc4c3[nH]2)cc1

photoluminescence quantum yield (in C1CCOC1): 0.00084
SMILES: CCCCC1(CCCC)c2cc(C#Cc3ccc(C=C4c5ccccc5C=Cc5ccccc54)cc3)ccc2-c2ccc(C#Cc3ccc(C=C4c5ccccc5C=Cc5ccccc54)cc3)cc21

photoluminescence quantum yield (in ClCCl): 0.2
SMILES: Cc1cc2cc(C)c3c4ccccc4[nH]c3c2o1

photoluminescence quantum yield (in ClCCl): 0.98
SMILES: CCOC(=O)/C=C/C1=[N+]2C(=C(c3c(C)cc(C)cc3C)c3ccc(/C=C/C(=O)OCC)n3[B-]2(F)F)C=C1

photoluminescence quantum yield (in C1CCOC1): 0.07
photoluminescence quantum yield (in CC#N): 0.02
photoluminescence quantum yield (in CCCCCC): 0.41
SMILES: CC1=N/C(=C\c2ccc(C#N)c(N(C)C)c2)C(=O)N1C

photoluminescence quantum yield (in CS(C)=O): 0.7
photoluminescence quantum yield (in O): 0.92
SMILES: CCCCCn1c2ccc(S(=O)(=O)O)cc2c(=O)c2cc(S(=O)(=O)O)ccc21

photoluminescence quantum yield (in ClCCl): 0.7
SMILES: Cn1nc(-c2ccc(C#N)cc2)cc1-c1ccccc1

photoluminescence quantum yield (in CC#N): 0.41
SMILES: O=C1c2ccccc2C2=C(c3ccccn3)NN=C(c3ccccn3)C2c2ccccc21 (stereo unspecified)

photoluminescence quantum yield (in CCO): 0.0198
photoluminescence quantum yield (in ClCCl): 0.016
SMILES: N#CC(C#N)=Cc1ccc(-c2ccc(O)c(-c3nc4ccccc4s3)c2)s1

photoluminescence quantum yield (in CC(C)O): 0.13
SMILES: CCN1C(=CC2=C([O-])C(=Cc3sc4ccccc4[n+]3CC)C2=O)Sc2ccccc21

photoluminescence quantum yield (in ClC(Cl)Cl): 0.33
SMILES: CN(C)c1ccc(-c2ccc(-c3cc(-c4ccccc4)c(-c4ccccc4)c(-c4ccccc4)c3-c3ccccc3)nc2)cc1

photoluminescence quantum yield (in C1CCCCC1): 0.38
photoluminescence quantum yield (in CC#N): 0.16
SMILES: C[Si](C)(C)[Si](C)(C)c1cccc2cc3ccccc3cc12

photoluminescence quantum yield (in ClCCl): 0.29
SMILES: O=C(c1ccc2c3c(sc2c1)-c1ccccc1P3(=O)c1ccccc1)c1c(F)c(F)c(F)c(F)c1F (stereo unspecified)

photoluminescence quantum yield (in CC#N): 0.52
SMILES: CC1=C(c2cccs2)C2=Cc3c(-c4cccs4)c(C)c(C)n3[B-](F)(F)[N+]2=C1C

photoluminescence quantum yield (in ClCCl): 0.7
SMILES: c1ccc2cc(-c3c4ccccc4c(-c4ccc(-c5ccc(-n6c7ccccc7c7ccccc76)cc5)cc4)c4ccccc34)ccc2c1

Second part, the compound before the results:

SMILES: CC1(C)c2ccccc2N(c2c(F)cc(-c3nnc(-c4ccccc4)o3)cc2F)c2ccccc21
photoluminescence quantum yield (in Cc1ccccc1): 0.24
photoluminescence quantum yield (in O=P(c1ccccc1)(c1ccccc1)c1ccccc1Oc1ccccc1P(=O)(c1ccccc1)c1ccccc1): 0.72

SMILES: COc1cc(C2=c3c(c4ccc(C(C)(C)C)cc4c4c(OC)c(OC)c(OC)cc34)=[N+]3C2=Nc2c(-c4cc(OC)c(OC)c(OC)c4)c4c5cc(OC)c(OC)c(OC)c5c5cc(C(C)(C)C)ccc5c4n2[B-]3(F)F)cc(OC)c1OC
photoluminescence quantum yield (in Cc1ccccc1): 0.001

SMILES: CCCCNc1nn(-c2ccc(OC)cc2)nc1C#N
photoluminescence quantum yield (in CC#N): 0.918

SMILES: F[B-]1(F)n2c(-c3cccs3)cc(-c3ccccc3)c2N=C2C(c3ccccc3)=CC(c3cccs3)=[N+]21
photoluminescence quantum yield (in CC#N): 0.46
photoluminescence quantum yield (in ClCCl): 0.44

SMILES: CC(C)(C)c1ccc2oc(-c3ccc(-c4nc5cc(C(C)(C)C)ccc5o4)s3)nc2c1
photoluminescence quantum yield (in C1CCCCC1): 0.8
photoluminescence quantum yield (in C1CCOC1): 0.78
photoluminescence quantum yield (in CC1CCCCC1): 0.66
photoluminescence quantum yield (in CC#N): 0.76
photoluminescence quantum yield (in CCCCO): 1
photoluminescence quantum yield (in CCO): 1
photoluminescence quantum yield (in CN(C)C=O): 0.87
photoluminescence quantum yield (in Cc1ccccc1): 1
photoluminescence quantum yield (in Clc1ccccc1Cl): 0.96
photoluminescence quantum yield (in c1ccccc1): 0.82

SMILES: C=C(C)C(CN1C(=O)c2cccc3c2c(cc2nc(C)oc23)C1=O)OO (stereo unspecified)
photoluminescence quantum yield (in CCO): 0.061

SMILES: CN(C)c1ccc(C(=Cc2ccc(C=O)cc2)c2ccc(N(C)C)cc2)cc1
photoluminescence quantum yield (in C1CCOC1): 0.059

SMILES: Fc1c(F)c(-n2c3ccccc3c3ccccc32)c(F)c(-n2c3ccccc3c3ccccc32)c1-c1nnc(-c2ccccc2)o1
photoluminescence quantum yield (in Cc1ccccc1): 0.08

SMILES: COc1ccc(-c2csc(/C(C#N)=C/c3ccc(C#N)cc3)n2)cc1
photoluminescence quantum yield (in CC#N): 0.008
photoluminescence quantum yield (in CCO): 0.008
photoluminescence quantum yield (in CN(C)C=O): 0.002
photoluminescence quantum yield (in Cc1ccccc1): 0.248
photoluminescence quantum yield (in ClCCl): 0.065

SMILES: CN(C)c1ccc(C2=Nc3sc4c(F)c(F)c(F)c(F)c4[n+]3[B-](F)(F)O2)cc1
photoluminescence quantum yield (in C1CCOC1): 0.47
photoluminescence quantum yield (in CC#N): 0.02
photoluminescence quantum yield (in Cc1ccccc1): 0.65
photoluminescence quantum yield (in ClCCl): 0.66

SMILES: c1ccc2c(c1)[nH]c1cccnc12
photoluminescence quantum yield (in C1CCCCC1): 0.145
photoluminescence quantum yield (in C1CCOC1): 0.081
photoluminescence quantum yield (in C1COCCO1): 0.122
photoluminescence quantum yield (in CCO): 0.129
photoluminescence quantum yield (in CN(C)C=O): 0.079
photoluminescence quantum yield (in Cc1ccccc1): 0.099
photoluminescence quantum yield (in ClC(Cl)Cl): 0.124
photoluminescence quantum yield (in Clc1ccccc1): 0.119

SMILES: CN(C)c1ccc(/C=C/c2cnc3ccccc3n2)cc1
photoluminescence quantum yield (in ClCCl): 0.59

SMILES: CN(C)c1ccc(/C=C2\CC/C(=C\c3ccc(C#N)cc3)C2=O)cc1
photoluminescence quantum yield (in C1CCOC1): 0.027
photoluminescence quantum yield (in CC#N): 0.0036
photoluminescence quantum yield (in CC(C)=O): 0.0095
photoluminescence quantum yield (in CC(C)O): 0.026
photoluminescence quantum yield (in CCCCO): 0.017
photoluminescence quantum yield (in CCCCOC(C)=O): 0.14
photoluminescence quantum yield (in CCCO): 0.013
photoluminescence quantum yield (in CCO): 0.0061
photoluminescence quantum yield (in CCOC(=O)c1ccccc1): 0.18
photoluminescence quantum yield (in CCOC(C)=O): 0.09
photoluminescence quantum yield (in CCOCC): 0.074
photoluminescence quantum yield (in CN(C)C=O): 0.0066
photoluminescence quantum yield (in CO): 0.0027
photoluminescence quantum yield (in CS(C)=O): 0.0074
photoluminescence quantum yield (in Cc1ccccc1): 0.05
photoluminescence quantum yield (in ClC(Cl)(Cl)Cl): 0.019
photoluminescence quantum yield (in ClC(Cl)Cl): 0.3
photoluminescence quantum yield (in ClCCl): 0.17
photoluminescence quantum yield (in Clc1ccccc1Cl): 0.29
photoluminescence quantum yield (in O=C1CCCC1): 0.034
photoluminescence quantum yield (in S=C=S): 0.034
photoluminescence quantum yield (in c1ccccc1): 0.066
photoluminescence quantum yield (in c1ccncc1): 0.051

SMILES: N#Cc1c(-n2c3ccccc3c3ccccc32)c(-n2c3ccccc3c3ccccc32)c(-n2c3ccccc3c3ccccc32)c(-n2c3ccc(-c4ccccc4)cc3c3cc(-c4ccccc4)ccc32)c1-n1c2ccccc2c2ccccc21
photoluminescence quantum yield (in Cc1ccccc1): 0.85

SMILES: O=C1C(=c2c(=O)c3c4ccccc4cc4cc5ccccc5c2c43)C(=O)c2ccccc21
photoluminescence quantum yield (in C1CCOC1): 0.235
photoluminescence quantum yield (in CC#N): 0.09
photoluminescence quantum yield (in CCCCCC): 0.292
photoluminescence quantum yield (in Cc1ccccc1): 0.268
photoluminescence quantum yield (in ClCCl): 0.193
